From patent publication US8211935B2, “Heterocyclic derivatives for modulation of calcium channels” (Vertex Pharmaceuticals Incorporated, priority 2004, dated 2012) come the findings set out here.

Structures are written as SMILES. Read-outs that look alike come from different tables or passages of the source.

The target of this experiment is T1, CaV2.2 (Homo sapiens, UniProt Q00975).
T1 construct: expressed in transfected cells; host or cells: HEK293
Briefly: VIPR optical membrane potential assay with electrical stimulation. Format: cell-based. Summed up: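 HEK293 cells stably expressing CaV2.2, stained with CC2-DMPE (10 μM final) and oxonol voltage-sensitive dyes, compound added with BaCl2. Membrane potential response evoked by 3-5 s electrical stimulation. Read as background-subtracted 460/580 nm emission ratio, response R=Rf/Ri, normalized to mibefradil positive and no-drug negative controls.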

Where [1] appears, read: Table 3, biological assay data, read-out: IC50.

T1 sequence (Q00975 whole entry): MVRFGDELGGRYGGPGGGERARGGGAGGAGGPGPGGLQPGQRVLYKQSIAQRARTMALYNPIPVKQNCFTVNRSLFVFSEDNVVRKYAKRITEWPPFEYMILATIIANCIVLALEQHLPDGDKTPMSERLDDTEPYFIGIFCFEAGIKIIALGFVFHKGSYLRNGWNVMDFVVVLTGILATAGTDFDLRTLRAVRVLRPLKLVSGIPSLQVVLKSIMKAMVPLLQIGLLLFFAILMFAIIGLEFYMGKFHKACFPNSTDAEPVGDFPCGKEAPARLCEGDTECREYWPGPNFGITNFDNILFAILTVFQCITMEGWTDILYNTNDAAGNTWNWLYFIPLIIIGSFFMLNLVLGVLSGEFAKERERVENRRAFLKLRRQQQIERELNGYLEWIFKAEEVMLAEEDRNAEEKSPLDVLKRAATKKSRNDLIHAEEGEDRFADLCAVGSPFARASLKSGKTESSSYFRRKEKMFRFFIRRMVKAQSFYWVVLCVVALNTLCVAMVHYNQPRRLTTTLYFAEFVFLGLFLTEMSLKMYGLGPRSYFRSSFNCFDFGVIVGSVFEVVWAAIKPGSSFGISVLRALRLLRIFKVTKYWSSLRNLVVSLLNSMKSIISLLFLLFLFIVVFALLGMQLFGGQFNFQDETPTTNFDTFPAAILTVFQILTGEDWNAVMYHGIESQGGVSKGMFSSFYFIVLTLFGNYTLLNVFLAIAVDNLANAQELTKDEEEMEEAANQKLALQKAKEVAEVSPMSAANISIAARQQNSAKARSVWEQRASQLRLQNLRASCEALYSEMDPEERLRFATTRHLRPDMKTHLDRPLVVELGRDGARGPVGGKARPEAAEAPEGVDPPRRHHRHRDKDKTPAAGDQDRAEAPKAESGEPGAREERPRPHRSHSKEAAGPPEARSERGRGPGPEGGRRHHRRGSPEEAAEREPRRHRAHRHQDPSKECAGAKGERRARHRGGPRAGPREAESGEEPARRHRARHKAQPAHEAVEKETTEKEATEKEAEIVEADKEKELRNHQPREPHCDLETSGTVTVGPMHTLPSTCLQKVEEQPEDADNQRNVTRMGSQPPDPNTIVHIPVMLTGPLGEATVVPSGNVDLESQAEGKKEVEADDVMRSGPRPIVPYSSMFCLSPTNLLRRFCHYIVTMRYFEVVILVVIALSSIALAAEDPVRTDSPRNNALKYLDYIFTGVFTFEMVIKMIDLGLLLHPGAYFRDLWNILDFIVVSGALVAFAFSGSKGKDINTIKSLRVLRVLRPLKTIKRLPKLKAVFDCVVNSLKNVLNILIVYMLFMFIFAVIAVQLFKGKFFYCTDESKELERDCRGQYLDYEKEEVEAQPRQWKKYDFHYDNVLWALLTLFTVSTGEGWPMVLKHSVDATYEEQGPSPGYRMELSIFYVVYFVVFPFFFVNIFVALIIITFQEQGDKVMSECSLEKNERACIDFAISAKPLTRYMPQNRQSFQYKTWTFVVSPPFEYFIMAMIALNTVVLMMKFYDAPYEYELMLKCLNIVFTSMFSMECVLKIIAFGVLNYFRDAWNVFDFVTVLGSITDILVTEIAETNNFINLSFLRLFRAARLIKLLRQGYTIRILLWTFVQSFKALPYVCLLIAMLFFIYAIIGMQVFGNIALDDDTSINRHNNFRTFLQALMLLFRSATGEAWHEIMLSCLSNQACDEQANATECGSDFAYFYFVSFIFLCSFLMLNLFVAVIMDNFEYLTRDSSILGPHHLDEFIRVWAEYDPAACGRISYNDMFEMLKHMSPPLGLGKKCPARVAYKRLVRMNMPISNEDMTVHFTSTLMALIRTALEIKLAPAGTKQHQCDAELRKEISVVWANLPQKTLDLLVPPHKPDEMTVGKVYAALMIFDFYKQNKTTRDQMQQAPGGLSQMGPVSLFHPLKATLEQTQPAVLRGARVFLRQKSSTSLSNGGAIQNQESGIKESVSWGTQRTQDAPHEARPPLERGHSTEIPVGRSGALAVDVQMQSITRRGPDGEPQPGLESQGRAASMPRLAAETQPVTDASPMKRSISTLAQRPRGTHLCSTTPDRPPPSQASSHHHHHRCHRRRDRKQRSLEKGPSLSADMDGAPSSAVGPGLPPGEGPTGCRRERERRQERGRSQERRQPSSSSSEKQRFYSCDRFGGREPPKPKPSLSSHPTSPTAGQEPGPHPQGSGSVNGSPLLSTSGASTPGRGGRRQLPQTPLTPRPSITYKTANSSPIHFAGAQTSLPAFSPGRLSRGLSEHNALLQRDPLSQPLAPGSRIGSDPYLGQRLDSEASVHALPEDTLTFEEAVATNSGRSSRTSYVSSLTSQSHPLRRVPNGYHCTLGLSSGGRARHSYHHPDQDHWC
T1 sequence (P54284 whole entry partner): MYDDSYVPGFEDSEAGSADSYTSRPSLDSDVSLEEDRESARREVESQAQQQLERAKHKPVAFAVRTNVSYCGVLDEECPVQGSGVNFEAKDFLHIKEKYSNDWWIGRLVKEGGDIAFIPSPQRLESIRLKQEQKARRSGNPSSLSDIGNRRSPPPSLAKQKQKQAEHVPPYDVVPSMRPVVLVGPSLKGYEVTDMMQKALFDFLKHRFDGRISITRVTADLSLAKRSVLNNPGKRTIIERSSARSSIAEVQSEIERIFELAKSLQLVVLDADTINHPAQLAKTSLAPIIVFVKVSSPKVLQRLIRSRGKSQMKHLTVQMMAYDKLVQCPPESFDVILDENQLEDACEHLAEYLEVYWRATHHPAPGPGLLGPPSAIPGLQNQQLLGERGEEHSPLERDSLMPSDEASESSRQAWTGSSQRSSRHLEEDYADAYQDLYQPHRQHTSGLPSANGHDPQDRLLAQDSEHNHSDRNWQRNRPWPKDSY
T1 sequence (P54289 25-946 partner limits assumed): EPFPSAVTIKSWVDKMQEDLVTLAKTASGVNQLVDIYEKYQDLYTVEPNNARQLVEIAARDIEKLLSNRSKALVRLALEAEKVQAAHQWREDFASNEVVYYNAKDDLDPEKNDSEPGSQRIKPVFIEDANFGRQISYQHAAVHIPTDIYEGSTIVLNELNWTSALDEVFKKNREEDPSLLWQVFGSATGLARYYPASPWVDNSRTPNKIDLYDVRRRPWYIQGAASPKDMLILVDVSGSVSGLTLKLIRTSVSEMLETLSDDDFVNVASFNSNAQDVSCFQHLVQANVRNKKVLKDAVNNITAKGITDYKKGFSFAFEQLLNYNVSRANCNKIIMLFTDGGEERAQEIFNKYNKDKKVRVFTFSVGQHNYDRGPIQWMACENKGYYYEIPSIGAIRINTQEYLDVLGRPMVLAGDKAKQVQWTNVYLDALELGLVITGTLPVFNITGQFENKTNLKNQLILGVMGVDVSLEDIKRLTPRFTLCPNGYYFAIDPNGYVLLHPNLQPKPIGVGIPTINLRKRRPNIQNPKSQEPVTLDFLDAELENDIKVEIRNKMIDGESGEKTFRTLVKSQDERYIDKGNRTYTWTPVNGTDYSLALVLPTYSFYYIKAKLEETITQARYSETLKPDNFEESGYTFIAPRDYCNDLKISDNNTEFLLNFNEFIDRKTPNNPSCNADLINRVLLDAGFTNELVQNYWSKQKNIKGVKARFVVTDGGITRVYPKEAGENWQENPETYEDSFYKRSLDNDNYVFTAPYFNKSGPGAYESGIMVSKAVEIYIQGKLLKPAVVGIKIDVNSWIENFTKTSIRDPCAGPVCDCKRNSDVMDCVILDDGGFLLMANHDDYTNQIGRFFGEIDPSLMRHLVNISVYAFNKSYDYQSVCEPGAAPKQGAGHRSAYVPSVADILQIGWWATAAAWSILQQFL
T1 sequence (P54289 947-1103 partner limits assumed): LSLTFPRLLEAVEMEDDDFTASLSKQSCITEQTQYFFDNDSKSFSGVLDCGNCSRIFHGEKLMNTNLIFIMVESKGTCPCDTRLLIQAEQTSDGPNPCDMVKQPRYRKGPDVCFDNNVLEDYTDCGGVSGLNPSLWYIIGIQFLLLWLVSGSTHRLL

Regarding `CCN(CC)S(=O)(=O)c1ccc2oc(C(=O)NC3CCCCC3)c(C)c2c1` [compound 370], the IC50 under setting [1] lay in the range of 5 to 20 µM.

For `Cc1c(C(=O)NC2CCCCC2)oc2ccc(S(=O)(=O)N3CCC4(CC3)OCCO4)cc12` [compound 371], under setting [1], the IC50 is 5 to 20 µM.

Regarding `Cc1c(C(=O)N2CCOCC2)oc2ccc(S(=O)(=O)N3CCCCC3)cc12` [compound 372], under setting [1], the half-inhibitory concentration (IC50) is under 20 µM.

Regarding `Cc1c(C(=O)N(C)Cc2ccccc2)[nH]c2ccc(S(=O)(=O)N3CC(C)CC(C)C3)cc12` (centres unmarked) [compound 373], under setting [1], the IC50 is under 5 µM.

Consider `CCN(CC)C(=O)c1cc2cc(S(=O)(=O)N3CC(C)CC(C)C3)ccc2n1CCCN1CCN(C)CC1` (centres unmarked) [compound 374], for which the IC50 under setting [1] was under 5 µM.

On to `COc1ccccc1CNC(=O)c1oc2ccc(S(=O)(=O)N3CCCC3)cc2c1C` [compound 375], for which, under setting [1], the concentration for half-maximal inhibition (IC50) was 5 to 20 µM.

Take `Cc1c(C(=O)N2CCC(C)CC2)oc2ccc(S(=O)(=O)N3CCCC(C)C3)cc12` (centres unmarked) [compound 376]: the IC50 under setting [1] is under 5 µM.

With `CCCCN(C)C(=O)c1cc2cc(S(=O)(=O)N3CC(C)CC(C)C3)ccc2[nH]1` (centres unmarked) [compound 377], under setting [1], the IC50 was under 5 µM.

For `Cc1c(C(=O)N2CCCC(C)C2)oc2ccc(S(=O)(=O)N3CC(C)CC(C)C3)cc12` (centres unmarked) [compound 378], the IC50 under setting [1] was under 5 µM.

For `Cc1c(C(=O)N2CCCCC2C)[nH]c2ccc(S(=O)(=O)N3CCCCCC3)cc12` (centres unmarked) [compound 379], under setting [1], the IC50 fell in the range of 5 to 20 µM.

`CC1CCN(S(=O)(=O)c2ccc3cc(C(=O)N(C)C)[nH]c3c2)CC1` [compound 380]: the IC50 under setting [1] was under 20 µM.

As for `Cc1c(C(=O)NCCc2ccccc2)[nH]c2ccc(S(=O)(=O)N3CCC(C)CC3)cc12` [compound 381], the IC50 under setting [1] was under 5 µM.

For `O=C(NCc1ccccc1)c1cc2cc(S(=O)(=O)N3CCCCCC3)ccc2[nH]1` [compound 382], the IC50 under setting [1] was under 5 µM.

For `Cc1c(C(=O)NCC2CCOCC2)oc2ccc(S(=O)(=O)N3CCCC(C)C3)cc12` (centres unmarked) [compound 383], the IC50 under setting [1] fell in the range of 5 to 20 µM.

On to `CCNC(=O)c1cc2cc(S(=O)(=O)N3CC(C)CC(C)C3)ccc2[nH]1` (centres unmarked) [compound 384], for which the IC50 under setting [1] is under 5 µM.

With `Cc1c(C(=O)N2CCN(C)CC2)oc2ccc(S(=O)(=O)N3CCC(C)CC3)cc12` [compound 385], under setting [1], the 50% inhibitory concentration (IC50) is 5 to 20 µM.

Turning to `O=C(NCC1CCCO1)c1cc2cc(S(=O)(=O)N3CCCCCC3)ccc2[nH]1` (centres unmarked) [compound 386], the IC50 under setting [1] is under 5 µM.

With `CCCS(=O)(=O)n1c(C(=O)N2CCCCC2)cc2cc(S(=O)(=O)N3CC(C)CC(C)C3)ccc21` (centres unmarked) [compound 387], the IC50 under setting [1] was under 5 µM.

`CCN(CC)S(=O)(=O)c1ccc2oc(C(=O)N3CCCC(C)C3)c(C)c2c1` (centres unmarked) [compound 388]: under setting [1], the IC50 was in the range of 5 to 20 µM.

Take `CC1CC(C)CN(S(=O)(=O)c2ccc3[nH]c(C(=O)N4CCCCC4)cc3c2)C1` (centres unmarked) [compound 389]: the IC50 under setting [1] is under 5 µM.

As for `Cc1c(C(=O)NC2CCCC2)[nH]c2ccc(S(=O)(=O)N3CC(C)CC(C)C3)cc12` (centres unmarked) [compound 390], the IC50 under setting [1] was under 5 µM.

Consider `CC1CC(C)CN(S(=O)(=O)c2ccc3c(c2)cc(C(=O)N2CCCCC2)n3C)C1` (centres unmarked) [compound 391], for which the IC50 under setting [1] was under 5 µM.

Consider `CC1CCCCN1C(=O)c1cc2cc(S(=O)(=O)N3CCCCCC3)ccc2o1` (centres unmarked) [compound 392], for which the IC50 under setting [1] fell in the range of 5 to 20 µM.

Consider `Cc1c(C(=O)NCCc2ccccc2)oc2ccc(S(=O)(=O)N3CC(C)CC(C)C3)cc12` (centres unmarked) [compound 393], for which the IC50 under setting [1] is under 5 µM.

Take `Cc1ccc(CNS(=O)(=O)c2ccc3oc(C(=O)NC4CC4)c(C)c3c2)cc1` [compound 394]: the IC50 under setting [1] was under 20 µM.

As for `Cc1c(C(=O)NC2CC2)oc2ccc(S(=O)(=O)N3CCC(C)CC3)cc12` [compound 395], the IC50 under setting [1] lay in the range of 5 to 20 µM.

Consider `Cc1c(C(=O)N(CCN(C)C)Cc2ccccc2)oc2ccc(S(=O)(=O)N3CCC(C)CC3)cc12` [compound 396], for which, under setting [1], the IC50 is under 5 µM.

For the compound `Cc1c(C(=O)NCc2ccccc2)oc2ccc(S(=O)(=O)N3CCCC(C)C3)cc12` (centres unmarked) [compound 397], the IC50 under setting [1] lay within 5 to 20 µM.

With `O=C(NCc1ccccc1)c1cc2cc(S(=O)(=O)N3CCCCCC3)ccc2n1S(=O)(=O)c1ccccc1` [compound 398], under setting [1], the IC50 is under 5 µM.

`CCN(CC)S(=O)(=O)c1ccc2oc(C(=O)NC(C)C)c(C)c2c1` [compound 399]: under setting [1], the IC50 was under 20 µM.

As to `CC(C)NC(=O)c1cc2cc(S(=O)(=O)N3CCCCCC3)ccc2[nH]1` [compound 400], the IC50 under setting [1] is under 20 µM.

Turning to `Cc1c(C(=O)NCCCc2ccccc2)oc2ccc(S(=O)(=O)N3CCCC(C)C3)cc12` (centres unmarked) [compound 401], the IC50 under setting [1] is under 5 µM.

In the case of `Cc1c(C(=O)N2CCCC2)oc2ccc(S(=O)(=O)N3CCCCCC3)cc12` [compound 402], the IC50 under setting [1] is under 20 µM.

As for `CCOC(=O)N1CCN(C(=O)c2oc3ccc(S(=O)(=O)N4CCCC(C)C4)cc3c2C)CC1` (centres unmarked) [compound 403], under setting [1], the IC50 was under 5 µM.

`Cc1c(C(=O)N2CCN(C)CC2)oc2ccc(S(=O)(=O)N3CCCC(C)C3)cc12` (centres unmarked) [compound 404]: the IC50 under setting [1] was 5 to 20 µM.

Turning to `CC1CC(C)CN(S(=O)(=O)c2ccc3[nH]c(C(=O)NCCC4CCOCC4)cc3c2)C1` (centres unmarked) [compound 405], the IC50 under setting [1] is under 5 µM.

In the case of `CC1CCCN(C(=O)c2cc3cc(S(=O)(=O)N4CC(C)CC(C)C4)ccc3o2)C1` (centres unmarked) [compound 406], the IC50 under setting [1] is under 5 µM.

On to `CC1CCN(S(=O)(=O)c2ccc3[nH]c(C(=O)NCC4CCCO4)cc3c2)CC1` (centres unmarked) [compound 407], for which the IC50 under setting [1] is under 5 µM.

For `CC1CC(C)CN(S(=O)(=O)c2ccc3oc(C(=O)NCC4CCCO4)cc3c2)C1` (centres unmarked) [compound 408], under setting [1], the IC50 was under 5 µM.

In the case of `Cc1c(C(=O)N2CCCCCC2)oc2ccc(S(=O)(=O)N3CCCC(C)C3)cc12` (centres unmarked) [compound 409], the IC50 under setting [1] is under 5 µM.

Regarding `CCOC(=O)N1CCN(C(=O)c2cc3cc(S(=O)(=O)N4CCCCCC4)ccc3o2)CC1` [compound 410], the IC50 under setting [1] lay within 5 to 20 µM.

Take `Cc1c(C(=O)NC(C)C)oc2ccc(S(=O)(=O)N3CCC(C)CC3)cc12` [compound 411]: under setting [1], the IC50 is under 5 µM.

In the case of `CC1CCN(S(=O)(=O)c2ccc3[nH]c(C(=O)NC4CCCC4)cc3c2)CC1` [compound 412], under setting [1], the IC50 was under 5 µM.

For `Cc1c(C(=O)N2CCCC(C)C2)oc2ccc(S(=O)(=O)N3CCCC(C)C3)cc12` (centres unmarked) [compound 413], under setting [1], the IC50 was under 5 µM.

For `Cc1c(C(=O)N2CCCC2)oc2ccc(S(=O)(=O)N3CC(C)CC(C)C3)cc12` (centres unmarked) [compound 414], the IC50 under setting [1] was under 5 µM.

As for `CCOC(=O)N1CCN(C(=O)c2cc3cc(S(=O)(=O)N4CC(C)CC(C)C4)ccc3[nH]2)CC1` (centres unmarked) [compound 415], the IC50 under setting [1] was under 5 µM.

As to `CN(Cc1ccccc1)C(=O)c1cc2cc(S(=O)(=O)N3CCCCCC3)ccc2[nH]1` [compound 416], the IC50 under setting [1] was under 5 µM.

On to `CC1CCN(S(=O)(=O)c2ccc3oc(C(=O)N4CCCC(C)C4)cc3c2)CC1` (centres unmarked) [compound 417], for which the IC50 under setting [1] was in the range of 5 to 20 µM.

With `O=C(NCC1CCOCC1)c1cc2cc(S(=O)(=O)N3CCCCCC3)ccc2[nH]1` [compound 418], the IC50 under setting [1] was under 5 µM.

As to `CC1CC(C)CN(S(=O)(=O)c2ccc3c(c2)cc(C(=O)N2CCN(C)CC2)n3S(=O)(=O)c2ccccc2)C1` (centres unmarked) [compound 419], the half-maximal inhibitory concentration (IC50) under setting [1] was 5 to 20 µM.

For `CCCCN(C)C(=O)c1[nH]c2ccc(S(=O)(=O)N3CC(C)CC(C)C3)cc2c1C` (centres unmarked) [compound 420], under setting [1], the IC50 is under 5 µM.

Turning to `O=C(NC1CC1)c1cc2cc(S(=O)(=O)N3CCCCCC3)ccc2n1S(=O)(=O)c1ccccc1` [compound 421], the IC50 under setting [1] was under 5 µM.

Take `CCCCN(C)C(=O)c1cc2cc(S(=O)(=O)N3CCCCCC3)ccc2[nH]1` [compound 422]: the half-inhibitory concentration (IC50) under setting [1] was under 5 µM.

As to `CCN(CC)C(=O)c1oc2ccc(S(=O)(=O)N3CC(C)CC(C)C3)cc2c1C` (centres unmarked) [compound 423], under setting [1], the IC50 was under 5 µM.

On to `Cc1c(C(=O)NC2CCCCC2)[nH]c2ccc(S(=O)(=O)N3CCC(C)CC3)cc12` [compound 424], for which the IC50 under setting [1] fell in the range of 5 to 20 µM.

Take `CC1CC(C)CN(C(=O)c2cc3cc(S(=O)(=O)N4CC(C)CC(C)C4)ccc3[nH]2)C1` (centres unmarked) [compound 425]: the IC50 under setting [1] was under 5 µM.

For `Cc1c(C(=O)NC2CC2)oc2ccc(S(=O)(=O)N3CCCC(F)(F)C3)cc12` [compound 426], the concentration for half-maximal inhibition (IC50) under setting [1] is 5 to 20 µM.

As to `O=C(NC1CCCCC1)c1cc2cc(S(=O)(=O)N3CCCCCC3)ccc2o1` [compound 427], the IC50 under setting [1] was under 5 µM.

With `O=C(NC1CC1)c1cc2cc(NS(=O)(=O)c3ccccc3)ccc2[nH]1` [compound 428], under setting [1], the IC50 is under 20 µM.

In the case of `O=C(NCC1CCCO1)c1cc2cc(S(=O)(=O)N3CCCCCC3)ccc2o1` (centres unmarked) [compound 429], under setting [1], the IC50 lay in the range of 5 to 20 µM.

Consider `CC1CC(C)CN(S(=O)(=O)c2ccc3oc(C(=O)N(C)Cc4ccccc4)cc3c2)C1` (centres unmarked) [compound 430], for which, under setting [1], the IC50 is under 5 µM.

As for `Cc1c(C(N)=O)oc2ccc(S(=O)(=O)N3CCC(C)CC3)cc12` [compound 431], the IC50 under setting [1] lay within 5 to 20 µM.

The compound `Cc1c(C(=O)N2CCC3(CC2)OCCO3)oc2ccc(S(=O)(=O)N3CCOCC3)cc12` [compound 432] came in with an IC50 of under 20 µM.

Consider `CC1CCN(S(=O)(=O)c2ccc3oc(C(=O)N(C)Cc4ccccc4)cc3c2)CC1` [compound 433], for which, under setting [1], the IC50 was under 5 µM.

As for `CC1CCN(S(=O)(=O)c2ccc3[nH]cc(C(=O)NC4CC4)c3c2)CC1` [compound 434], the 50% inhibitory concentration (IC50) under setting [1] was under 20 µM.

On to `CNC(=O)c1cc2cc(S(=O)(=O)N3CC(C)CC(C)C3)ccc2n1C` (centres unmarked) [compound 435], for which the IC50 under setting [1] was under 5 µM.

In the case of `CC1CCN(S(=O)(=O)c2ccc3[nH]c(C(=O)N4CCCCC4C)cc3c2)CC1` (centres unmarked) [compound 436], under setting [1], the IC50 was under 5 µM.

With `CC1CCCCN1C(=O)c1cc2cc(S(=O)(=O)N3CCCCCC3)ccc2[nH]1` (centres unmarked) [compound 437], the IC50 under setting [1] was under 20 µM.

As to `CNC(=O)c1cc2cc(S(=O)(=O)N3CCC(C)CC3)ccc2o1` [compound 438], the IC50 under setting [1] is 5 to 20 µM.

Take `CCOC(=O)N1CCN(C(=O)c2[nH]c3ccc(S(=O)(=O)N4CC(C)CC(C)C4)cc3c2C)CC1` (centres unmarked) [compound 439]: the IC50 under setting [1] was under 5 µM.

Turning to `Cc1c(C(=O)N2CCCCC2)[nH]c2ccc(S(=O)(=O)N3CC(C)CC(C)C3)cc12` (centres unmarked) [compound 440], the IC50 under setting [1] was under 5 µM.
